# Assay results taken from US8476064B2, “Inhibition assay method and device for detection of antibiotics” (Charm Sciences, Inc., priority 2006, dated 2013).
# Key:
# [1] = test system: B.st. spores; test: Antibiotic detection test in spiked milk, Trizma/succinate culture of Example 7 (Table 5); type: cell-based, Bacillus (Geobacillus) Stearothermophilus; details: for % Pos (16 hr Result) / 16 hr Result: 16 hours later; for % Pos (Result) / Result: immediately after test completion
# Experimental: A Trizma/Succinate solution was prepared by adding 2.5 grams Trizma Base and 6 grams Succinate to 100 mL of reverse osmosis/deionized water (RO/DI Water) in a 125 mL flask. 40 milligrams of BCP (see example 1 for BCP preparation) was then added to a 50 mL conical tube and 25 mL of the Trizma/Succinate solution was added to the 40 milligrams BCP and mixed.
# The media was prepared by dissolving 5 grams glucose and 1 gram Mueller Hinton Broth in 100 mL RO/DI Water. 1.2 mL of a 0.01 mg/mL solution of trimethoprim in RO/DI water was added to the media. 20 mL of the BCP/Trizma/Succinate preparation was added to the media and the media was sterile filtered through a 0.45 micron filter and cooled to 4 degrees C.
# 0.3 grams Difco Bacto-Agar (Item #0140-01), 0.225 NaCl and 17 mL of RO/DI water was combined and mixed and heated the mixture to 95° C. The mixture was removed from the heat and allowed it to cool to 75° C. and then 6 mL media (with BCP/Tris) was added and mixed for 5 minutes. The mixture was cooled to 57° C. and 2 mL spore (concentration of 1 billion cfu/mL) was added and mixed for 5 minutes. 0.200 mL was dispensed into the bottom of each vial.
# In test operation 200 microliters of various milk samples, spiked with known concentrations of antibiotics, were pipetted into vials and incubated for the prescribed time (in this test 2 hours 30 minutes) and prescribed temperature (64 degrees C.+/−2 degrees C.). Results were recorded immediately after test completion and 16 hours later. Incubation was in various Charm Inctronic I incubators. Concentrations listed are in parts per billion (ppb). 4 samples were run at each concentration except 16 negative samples were run and 2 samples each for 3 ppb pen G and amoxicillin. Abbreviations are pencillin G (PenG); sulfamethazine (SMZ); sulfadimethoxine (SDM); tylosin (TY); gentamicin (G); oxytetracycline (OT); pirlimycin (Pirl); amoxicillin (Amox); ampicillin (Amp); cloxacillin (Clox); ceftiofur sodium (Ceft); cephaprin (Ceph); tilmicosin (Til); sulfadoxine (SDN); neomycin (Neo).
# [2] = test system: B.st. spores; test: Single service kidney swab microbial growth inhibition test, culture of Example 1, with or without beta-lactam receptor; type: cell-based, Bacillus (Geobacillus) Stearothermophilus; details: for test result With receptor: with 1 U receptor
# Experimental: A Bromocresol purple (BCP)/Tris Solution was prepared by combining 25 mL of a Trizma Base solution (TBS), the solution including 2.5 grams Trizma Base in 100 mL of reverse osmosis/deionized water (RO/DI Water), with 100 milligrams of BCP and mixing well. The media was prepared by dissolving 5 grams glucose and 1 gram Mueller Hinton Broth (Mueller Hinton broth includes, in purified filtered water, 2 grams per liter (g/L) beef extract, 17.5 g/L casein hydrolysate acid and 1.5 g/L starch, pH 7.3 at 25 degrees C) into 100 mL RO/DI Water. Then a 0.01 mg/mL solution of trimethoprim in RO/DI Water was prepared and 1.2 mL was added to the media. Next 20 mL of BCP/Tris (sterile filtered through 0.45 micron filter) was added to the media.
# Agar was prepared by combining 0.3 grams Difco Bacto-Agar (Item #0140-01), 0.225 NaCl and 17.485 RO/DI Water. The mixture was heated to 95° C. and then removed from the heat and allowed to cool to 75° C. Next 6 mL of media (prepared as described above with BCP/Tris) was added to the agar and mixed for 5 minutes. The mixture was cooled to 57° C. and 1 mL spore solution (concentration of 1 billion cfu/mL) was added and mixed together for 5 minutes. 0.200 mL was dispensed into the bottom of a vial 4.
# The dispensed vial 4 was prepared as described in example 1. An extractant was prepared by adding 4.8 grams of 47.2% Trizma Base and 52.5% Potassium Phosphate Monobasic to 1000 mL RO/DI Water (pH should be 7.5+/−0.10). The extractant was sealed within the niblet 5 and the niblet was added to the vial 4. The vial 4 was heat sealed with foil.
# The single service kidney swab procedure was run by first making a 3 inch incision into kidney. The swab 1 was then withdrawn from the test unit, the test unit in the form of a POCKETSWAB, by gently pulling and twisting the handle 2 out of the test unit body 7. The swab 1 was then inserted into the incision of the kidney and allowed to sit for 15 minutes to allow full absorption of liquid into the swab 1. The swab 1 was reinserted by gently pushing down and twisting to engage the threads 6 and screwing the handle down slowly about halfway. The swab tip 3 punctured the seals 12, 13 & 14 immersing the swab tip 3 into the extractant within the niblet 5 where it sat for 2 minutes. The swab 1 was then screwed down all the way. After shaking and tapping the vial 4 to get residual liquid into the bottom of the vial 4 and in contact with the culture 15, we placed the vial 4 into a heat block set at 67° C. and incubated for 2.5 hours (if urine is tested instead of kidney, incubate for 4 hours).
# Culture is prepared as in Example 1. Prior to dispensing 200 microliters into the vial 4, antibiotic binder is prepared, in this example an antibiotic binder from the cell wall of B.st., also known as receptor. Varying amounts of inhibitory receptor units are mixed into the culture. Receptor is defined as protein removed from cellular membrane of B.st. A receptor unit (1 U) is the amount of receptor that will, in the test, reverse the culture growth inhibition of 12.5 ppb of penicillin G.
# Results in Table 1 are from tests using the culture described in Example 1 and with the addition of receptor added into rinse buffer (rinse buffer composition is 4.8 grams of 47.2% Trizma Base and 52.5% Potassium Phosphate Monobasic to 1000 mL RO/DI Water) at 0, 0.3 units (U), 1.0 U, 2.0 U, 5.0 Upper test. Sample contained the following amounts of penicillin G: 0, 5 parts per billion (ppb), 10 ppb, 12.5 ppb, 25 ppb and 50 ppb. As shown, 1.0 U was able to reverse the result of a 12.5 ppb penicillin G sample. Results are either positive (+) or negative (−).
# Results are either positive (+), negative (−) or borderline between positive and negative (+/−). Abbreviations are penicillin G (PenG); sulfamethazine (SMZ); sulfadimethoxine (SDM); tylosin (TY); gentamicin (G); oxytetracycline (OT). […]
# [3] = drug concentration 250 (unit not given)
# [4] = drug concentration 500 (unit not given)
# [5] = drug concentration 750 (unit not given)
structure (smiles),measurement,setting,value
"CN(C)[C@@H]1C(O)=C(C(N)=O)C(=O)[C@@]2(O)C(O)=C3C(=O)c4c(O)cccc4[C@@](C)(O)[C@H]3[C@H](O)[C@@H]12 [OT, oxytetracycline]",% Pos (16 hr Result),[1]; milk spiked at 200 ppb,0%
same,% Pos (Result),[1]; milk spiked at 200 ppb,0%
same,% Pos (16 hr Result),[1]; milk spiked at 300 ppb,100%
same,% Pos (Result),[1]; milk spiked at 300 ppb,100%
same,test result w/out receptor,[2]; [3],+
same,test result With receptor,[2]; [3],+
same,test result w/out receptor,[2]; [4],+
same,test result With receptor,[2]; [4],+
same,test result w/out receptor,[2]; [5],+
same,test result With receptor,[2]; [5],+
"CC1(C)S[C@@H]2[C@H](NC(=O)Cc3ccccc3)C(=O)N2[C@H]1C(=O)O [PenG, penicillin G]",16 hr Result,[1]; milk spiked at 3 ppb,Pos
same,% Pos (16 hr Result),[1]; milk spiked at 3 ppb,100%
same,% Pos (Result),[1]; milk spiked at 3 ppb,100%
same,Result,[1]; milk spiked at 3 ppb,Pos
same,16 hr Result,[1]; milk spiked at 4 ppb,Pos
same,% Pos (16 hr Result),[1]; milk spiked at 4 ppb,100%
same,% Pos (Result),[1]; milk spiked at 4 ppb,100%
same,Result,[1]; milk spiked at 4 ppb,Pos
same,test result,"[2]; 12.5 ppb penicillin G, Control - no receptor",+
same,test result,"[2]; 12.5 ppb penicillin G, Receptor added to buffer",−
same,test result,"[2]; 12.5 ppb penicillin G, Receptor added to culture surface",−
same,test result,"[2]; 12.5 ppb penicillin G, Receptor mixed in culture",−
same,test result,"[2]; 50 ppb penicillin G, Control - no receptor",+
same,test result,"[2]; 50 ppb penicillin G, Receptor added dried on swab",+
same,test result,"[2]; 50 ppb penicillin G, Receptor added to buffer",+
same,test result,"[2]; 50 ppb penicillin G, Receptor added to culture surface",+
same,test sensitivity to penicillin G,[2]; beta-lactam receptor 0.3 units to 5.0 units added to the top of the culture,reduced by varying amounts
same,test result w/out receptor,[2]; drug 12.5 ppb,+
same,test result With receptor,[2]; drug 12.5 ppb,−
same,test result w/out receptor,[2]; drug 25 ppb,+
same,test result With receptor,[2]; drug 25 ppb,+
same,test result,"[2]; penicillin G 5 ppb in sample, receptor 0 U per test in rinse buffer",+
same,test result,"[2]; penicillin G 5 ppb in sample, receptor 0.3 U per test in rinse buffer",−
same,test result,"[2]; penicillin G 5 ppb in sample, receptor 1.0 U per test in rinse buffer",−
same,test result,"[2]; penicillin G 5 ppb in sample, receptor 2.0 U per test in rinse buffer",−
same,test result,"[2]; penicillin G 5 ppb in sample, receptor 5.0 U per test in rinse buffer",−
same,test result,"[2]; penicillin G 10 ppb in sample, receptor 0 U per test in rinse buffer",+
same,test result,"[2]; penicillin G 10 ppb in sample, receptor 0.3 U per test in rinse buffer",−
same,test result,"[2]; penicillin G 10 ppb in sample, receptor 1.0 U per test in rinse buffer",−
same,test result,"[2]; penicillin G 10 ppb in sample, receptor 2.0 U per test in rinse buffer",−
same,test result,"[2]; penicillin G 10 ppb in sample, receptor 5.0 U per test in rinse buffer",−
same,test result,"[2]; penicillin G 12.5 ppb in sample, receptor 0 U per test in rinse buffer",+
same,test result,"[2]; penicillin G 12.5 ppb in sample, receptor 0.3 U per test in rinse buffer",+
same,test result,"[2]; penicillin G 12.5 ppb in sample, receptor 1.0 U per test in rinse buffer",−
same,test result,"[2]; penicillin G 12.5 ppb in sample, receptor 2.0 U per test in rinse buffer",−
same,test result,"[2]; penicillin G 12.5 ppb in sample, receptor 5.0 U per test in rinse buffer",−
same,test result,"[2]; penicillin G 25 ppb in sample, receptor 0 U per test in rinse buffer",+
same,test result,"[2]; penicillin G 25 ppb in sample, receptor 0.3 U per test in rinse buffer",+
same,test result,"[2]; penicillin G 25 ppb in sample, receptor 1.0 U per test in rinse buffer",+
same,test result,"[2]; penicillin G 25 ppb in sample, receptor 2.0 U per test in rinse buffer",+
same,test result,"[2]; penicillin G 25 ppb in sample, receptor 5.0 U per test in rinse buffer",+
same,test result,"[2]; penicillin G 50 ppb in sample, receptor 0 U per test in rinse buffer",+
same,test result,"[2]; penicillin G 50 ppb in sample, receptor 0.3 U per test in rinse buffer",+
same,test result,"[2]; penicillin G 50 ppb in sample, receptor 1.0 U per test in rinse buffer",+
same,test result,"[2]; penicillin G 50 ppb in sample, receptor 2.0 U per test in rinse buffer",+
same,test result,"[2]; penicillin G 50 ppb in sample, receptor 5.0 U per test in rinse buffer",+
"COc1cc(NS(=O)(=O)c2ccc(N)cc2)nc(OC)n1 [SDM, sulfadimethoxine]",16 hr Result,[1]; milk spiked at 25 ppb,Pos
same,% Pos (16 hr Result),[1]; milk spiked at 25 ppb,100%
same,% Pos (Result),[1]; milk spiked at 25 ppb,100%
same,Result,[1]; milk spiked at 25 ppb,Pos
same,16 hr Result,[1]; milk spiked at 50 ppb,Pos
same,% Pos (16 hr Result),[1]; milk spiked at 50 ppb,100%
same,% Pos (Result),[1]; milk spiked at 50 ppb,100%
same,Result,[1]; milk spiked at 50 ppb,Pos
same,test result w/out receptor,[2]; drug 50 ppb,+/−
same,test result With receptor,[2]; drug 50 ppb,+/−
same,test result w/out receptor,[2]; drug 100 ppb,+/−
same,test result With receptor,[2]; drug 100 ppb,+/−
same,test result w/out receptor,[2]; drug 200 ppb,+
same,test result With receptor,[2]; drug 200 ppb,+
"Cc1cc(C)nc(NS(=O)(=O)c2ccc(N)cc2)n1 [SMZ, sulfamethazine]",16 hr Result,[1]; milk spiked at 100 ppb,Pos
same,% Pos (16 hr Result),[1]; milk spiked at 100 ppb,100%
same,% Pos (Result),[1]; milk spiked at 100 ppb,100%
same,Result,[1]; milk spiked at 100 ppb,Pos
same,16 hr Result,[1]; milk spiked at 200 ppb,Pos
same,% Pos (16 hr Result),[1]; milk spiked at 200 ppb,100%
same,% Pos (Result),[1]; milk spiked at 200 ppb,100%
same,Result,[1]; milk spiked at 200 ppb,Pos
same,test result w/out receptor,[2]; drug 50 ppb,−
same,test result With receptor,[2]; drug 50 ppb,−
same,test result w/out receptor,[2]; drug 100 ppb,+/−
same,test result With receptor,[2]; drug 100 ppb,+/−
same,test result w/out receptor,[2]; drug 200 ppb,+/−
same,test result With receptor,[2]; drug 200 ppb,+/−
